Consider 30 compounds from patent publication US20080207708A1, “Oxazole and Thiazole Compounds and Their Use in the Treatment of Pge2 Mediated Disorders” (GLAXO GROUP LIMITED, priority 2005, published 2008).

Each structure is given as a SMILES string. Where a name gives a salt, the structure may show the parent alone. A value given as a limit tells only on which side of the number the result lay.

The experiment addresses T1, EP1 receptors (Homo sapiens, UniProt P34995).
T1 sequence (P34995 1-402): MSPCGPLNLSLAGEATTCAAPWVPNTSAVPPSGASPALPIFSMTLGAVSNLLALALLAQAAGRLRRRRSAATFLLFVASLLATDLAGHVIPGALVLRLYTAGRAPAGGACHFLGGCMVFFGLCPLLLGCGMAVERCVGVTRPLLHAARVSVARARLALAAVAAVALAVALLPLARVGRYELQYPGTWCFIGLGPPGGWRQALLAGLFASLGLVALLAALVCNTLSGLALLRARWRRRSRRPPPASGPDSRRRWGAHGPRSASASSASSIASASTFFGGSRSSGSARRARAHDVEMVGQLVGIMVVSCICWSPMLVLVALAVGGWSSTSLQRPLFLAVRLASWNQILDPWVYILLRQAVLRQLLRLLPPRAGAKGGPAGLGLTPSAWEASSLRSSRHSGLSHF
Briefly: Binding assay for the human prostanoid EP1 receptor (competition with [3H]-PGE2). Set-up: expressed in transfected cells; host or cells: CHO-K1 cells, membrane fraction. Particulars: [3H]-PGE2 competition; averages of a number of experiments; read-out: pIC50 value, binding assay for the human prostanoid EP1 receptor (converted). The procedure: Competition assay using [^3H]-PGE2.
Compound potencies are determined using a radioligand binding assay. In this assay compound potencies are determined from their ability to compete with tritiated prostaglandin E2 ([^3H]-PGE2) for binding to the human EP1 receptor.
This assay utilises Chinese hamster ovary-K1 (CHO-K1) cells into which a stable vector containing the EP1 cDNA has previously been transfected. Cells are cultured in suitable flasks containing culture medium such as DMEM:F-12 supplemented with 10% v/v foetal calf serum, 2 mM L-glutamine, 0.25 mg/ml geneticin, 10 μg/ml puromycin and 10 μM indomethacin.
Cells are detached from the culture flasks by incubation in calcium and magnesium free phosphate buffered saline containing 1 mM disodium ethylenediaminetetraacetic acid (Na2EDTA) and 10 μM indomethacin for 5 min. The cells are isolated by centrifugation at 250×g for 5mins and suspended in an ice cold buffer such as 50 mM Tris, 1 mM Na2EDTA, 140 mM NaCl, 10 μM indomethacin (pH 7.4). The cells are homogenised using a Polytron tissue disrupter (2×10 s burst at full setting), centrifuged at 48,000×g for 20mins and the pellet containing the membrane fraction is washed (optional) three times by suspension and centrifugation at 48,000×g for 20mins. The final membrane pellet is suspended in an assay buffer such as 10 mM 2-[N-morpholino]ethanesulphonic acid, 1 mM Na2EDTA, 10 mM MgCl2 (pH 6). Aliquots are frozen at […] until required.
For the binding assay the cell membranes, competing compounds and [^3H]-PGE2 (3 nM final assay concentration) are incubated in a final volume of 100 μl for 30 min at 30° C. All reagents are prepared in assay buffer. Reactions are terminated by rapid vacuum filtration over GF/B filters using a Brandell cell harvester. The filters are washed with ice cold assay buffer, dried and the radioactivity retained on the filters is measured by liquid scintillation counting in Packard TopCount scintillation counter.
The data are analysed using non linear curve fitting techniques to determine the concentration of compound producing 50% inhibition of specific binding (IC50).

For `O=C(O)Cc1csc(-c2cc(Cl)ccc2OCc2c(F)cc(F)cc2F)n1` [Example 64, Sodium [2-(5-chloro-2-{[(2,4,6-trifluorophenyl)methyl]oxy}phenyl)-1,3-thiazol-4-yl]acetate], the IC50 was ≤ 1000 nM.

Consider `O=C(O)Cc1csc(-c2cc(Cl)ccc2OCc2ccc(Cl)cc2F)n1` [Example 65, Sodium [2-(5-chloro-2-{[(4-chloro-2-fluorophenyl)methyl]oxy}phenyl)-1,3-thiazol-4-yl]acetate], for which the IC50 is ≤ 31.6 nM.

`O=C(O)Cc1csc(-c2cc(Cl)ccc2OCc2ccc(F)cc2Cl)n1` [Example 66, Sodium [2-(5-chloro-2-{[(2-chloro-4-fluorophenyl)methyl]oxy}phenyl)-1,3-thiazol-4-yl]acetate]: the IC50 was ≤ 1000 nM.

Consider `O=C(O)Cc1csc(-c2cc(Cl)ccc2OCc2c(F)ccc(F)c2F)n1` [Example 67, Sodium [2-(5-chloro-2-{[(2,3,6-trifluorophenyl)methyl]oxy}phenyl)-1,3-thiazol-4-yl]acetate], for which the IC50 is ≤ 1000 nM.

For `O=C(O)Cc1csc(-c2cc(Cl)ccc2OCc2cc(F)c(F)cc2F)n1` [Example 68, Sodium [2-(5-chloro-2-{[(2,4,5-trifluorophenyl)methyl]oxy}phenyl)-1,3-thiazol-4-yl]acetate], the IC50 is ≤ 1000 nM.

For the compound `O=C(O)Cc1csc(-c2cc(Cl)ccc2OCc2cc(F)c(F)c(F)c2)n1` [Example 69, Sodium [2-(5-chloro-2-{[(3,4,5-trifluorophenyl)methyl]oxy}phenyl)-1,3-thiazol-4-yl]acetate], the IC50 was ≤ 1000 nM.

Regarding `O=C(O)Cc1csc(-c2cc(Cl)ccc2OCc2ccccc2Cl)n1` [Example 70, Sodium [2-(5-chloro-2-{[(2-chlorophenyl)methyl]oxy}phenyl)-1,3-thiazol-4-yl]acetate], the IC50 is ≤ 1000 nM.

For `O=C(O)Cc1csc(-c2cc(Cl)ccc2OCc2ccc(Cl)cc2)n1` [Example 71, Sodium [2-(5-chloro-2-{[(4-chlorophenyl)methyl]oxy}phenyl)-1,3-thiazol-4-yl]acetate], the IC50 was ≤ 31.6 nM.

For `O=C(O)Cc1csc(-c2cc(Cl)ccc2OCc2ccc(F)cc2)n1` [Example 72, Sodium [2-(5-chloro-2-{[(4-fluorophenyl)methyl]oxy}phenyl)-1,3-thiazol-4-yl]acetate], the IC50 is ≤ 1000 nM.

Take `O=C(O)Cc1csc(-c2cc(Cl)ccc2OCc2ccccc2)n1` [Example 73, Sodium [2-{5-chloro-2-[(phenylmethyl)oxy]phenyl}-1,3-thiazol-4-yl)acetate]: the IC50 was ≤ 31.6 nM.

Turning to `O=C(O)c1nc(Cc2cc(Cl)ccc2OCc2ccc(F)cc2F)cs1` [Example 74, Sodium 4-[(5-chloro-2-{[(2,4-difluorophenyl)methyl]oxy}phenyl)methyl]-1,3-thiazole-2-carboxylate], the IC50 was ≤ 31.6 nM.

Consider `O=C(O)c1csc(Nc2cc(Cl)ccc2OCc2ccccc2)n1` [Example 75, Sodium 2-({5-chloro-2-[(phenylmethyl)oxy]phenyl}amino)-1,3-thiazole-4-carboxylate], for which the IC50 was ≤ 1000 nM.

For the compound `O=C(O)c1nc(Cc2cc(Cl)ccc2OCc2ccccc2)cs1` [Example 76, Sodium 4-({5-chloro-2-[(phenylmethyl)oxy]phenyl}methyl)-1,3-thiazole-2-carboxylate], the IC50 was ≤ 31.6 nM.

`O=C(O)c1nc(Cc2cc(Cl)ccc2OCc2ccc(F)cc2)cs1` [Example 77, Sodium 4-[(5-chloro-2-{[(4-fluorophenyl)methyl]oxy}phenyl)methyl]-1,3-thiazole-2-carboxylate]: the IC50 is ≤ 31.6 nM.

As for `O=C(O)c1coc(Cc2cc(Cl)ccc2OCc2ccccc2)n1` [Example 78, Sodium 2-({5-chloro-2-[(phenylmethyl)oxy]phenyl}methyl)-1,3-oxazole-4-carboxylate], the IC50 was ≤ 31.6 nM.

As to `CC(C)COc1ccc(Cl)cc1C(F)(F)c1nc(C(=O)O)cs1` [Example 82, Sodium 2-[{5-chloro-2-[(2-methylpropyl)oxy]phenyl}(difluoro)methyl]-1,3-thiazole-4-carboxylate], the IC50 was ≤ 1000 nM.

Regarding `O=C(O)c1nc(Cc2cc(Cl)ccc2OCc2ccccc2Cl)cs1` [Example 83, Sodium 4-[(5-chloro-2-{[(2-chlorophenyl)methyl]oxy}phenyl)methyl]-1,3-thiazole-2-carboxylate], the IC50 was ≤ 31.6 nM.

Take `O=C(O)c1nc(Cc2cc(Cl)ccc2OCc2ccccc2F)cs1` [Example 84, Sodium 4-[(5-chloro-2-{[(2-fluorophenyl)methyl]oxy}-phenyl)methyl]-1,3-thiazole-2-carboxylate]: the IC50 was ≤ 31.6 nM.

As to `O=C(O)c1nc(Cc2cc(Cl)ccc2OCc2c(F)cc(F)cc2F)cs1` [Example 85, Sodium 4-[(5-chloro-2-{[(2,4,6-trifluorophenyl)methyl]-oxy}phenyl)methyl]-1,3-thiazole-2-carboxylate], the IC50 was ≤ 31.6 nM.

Turning to `O=C(O)c1nc(Cc2cc(Cl)ccc2OCc2ccc(Cl)cc2)cs1` [Example 86, Sodium 4-[(5-chloro-2-{[(4-chlorophenyl)methyl]-oxy}phenyl)methyl]-1,3-thiazole-2-carboxylate], the IC50 is ≤ 31.6 nM.

Regarding `O=C(O)c1nc(Cc2cc(Cl)ccc2OCc2ccc(F)cc2Cl)cs1` [Example 87, Sodium 4-[(5-chloro-2-{[(2-chloro-4-fluorophenyl)methyl]oxy}-phenyl)methyl]-1,3-thiazole-2-carboxylate], the IC50 was ≤ 31.6 nM.

As for `O=C(O)c1nc(Cc2cc(Cl)ccc2OCc2c(F)ccc(F)c2F)cs1` [Example 88, Sodium 4-[(5-chloro-2-{[(2,3,6-trifluorophenyl)methyl]-oxy}phenyl)methyl]-1,3-thiazole-2-carboxylate], the IC50 is ≤ 1000 nM.

As to `O=C(O)c1nc(Cc2cc(Cl)ccc2OCc2cc(F)c(F)cc2F)cs1` [Example 89, Sodium 4-[(5-chloro-2-{[(2,4,5-trifluorophenyl)methyl]-oxy}phenyl)methyl]-1,3-thiazole-2-carboxylate], the IC50 was ≤ 31.6 nM.

As for `NC(=O)c1csc(Cc2cc(Cl)ccc2OCc2ccccc2)n1` [Example 90, 2-({5-Chloro-2-[(phenylmethyl)oxy]phenyl}methyl)-1,3-thiazole-4-carboxamide], the IC50 was ≤ 1000 nM.

Consider `O=C(NS(=O)(=O)c1ccccc1)c1csc(Cc2cc(Cl)ccc2OCc2ccccc2)n1` [Example 100, 2-({5-Chloro-2-[(phenylmethyl)oxy]phenyl}methyl)-N-(phenylsulfonyl)-1,3-thiazole-4-carboxamide], for which the IC50 was ≤ 31.6 nM.

Take `Clc1ccc(OCc2ccccc2)c(Cc2nc(-c3nnn[nH]3)cs2)c1` [Example 109, 5-[2-({5-Chloro-2-[(phenylmethyl)oxy]phenyl}methyl)-1,3-thiazol-4-yl]-1H-tetrazole]: the IC50 is ≤ 31.6 nM.

For `O=C1CN(Cc2ccc(NC(=O)c3csc(Cc4cc(Cl)ccc4OCc4ccccc4)n3)cc2)CCN1` [Example 122, 2-({5-Chloro-2-[(phenylmethyl)oxy]phenyl}-methyl)-N-{4-[(3-oxo-1-piperazinyl)methyl]phenyl}-1,3-thiazole-4-carboxamidehydrochloride], the IC50 was ≤ 31.6 nM.

As to `CC(C)COc1ccc(Cl)cc1Cc1nc(-c2nc3ccc(CN4CCCC4)cc3[nH]2)cs1` [Example 123, 2-[2-({5-Chloro-2-[(2-methylpropyl)oxy]phenyl}-methyl)-1,3-thiazol-4-yl]-5-(1-pyrrolidinylmethyl)-1H-benzimidazole hydrochloride], the IC50 is ≤ 31.6 nM.

`Clc1ccc(OCc2ccccc2)c(Cc2nc(-c3nc4ccc(Cl)nc4[nH]3)cs2)c1` [Example 138, 5-Chloro-2-[2-({5-chloro-2-[(phenylmethyl)oxy]phenyl}methyl)-1,3-thiazol-4-yl]-1H-imidazo[4,5-b]pyridinehydrochloride]: the IC50 is ≤ 31.6 nM.

On to `Clc1ccc(OCc2ccccc2)c(Cc2nc(-c3nnc[nH]3)cs2)c1` [Example 156, 3-[2-({5-Chloro-2-[(phenylmethyl)oxy]phenyl}methyl)-1,3-thiazol-4-yl]-1H-1,2,4-triazole], for which the IC50 is ≤ 1000 nM.
